Consider six molecules from patent US20250026724A1, “(1,4,5-TRISUBSTITUTED 1H-PYRAZOL-3-YL)OXY-2-ALKYLTHIOALKYL ACIDS AND -ALKYL ACID DERIVATIVES, SALTS THEREOF AND USE THEREOF AS ACTIVE HERBICIDAL INGREDIENTS” (BAYER AKTIENGESELLSCHAFT, priority 2021, published 2025).

Structures are written as SMILES.

Common to all, as to assay: Post-emergence herbicidal action, greenhouse pot trial
Common to all, as to format: in vivo

In assay [1] the test system is Setaria viridis (SETVI). The following applies: visual rating after about 3 weeks; for pest or weed control at 320 g/ha: Setaria viridis, 504 h, read-out: Post-emergence effect at 320 g/ha against SETVI in %. The procedure:
(§1) Seeds of monocotyledonous and dicotyledonous weeds and crop plants are placed in sandy loam in plastic or organic planting pots, covered with soil and cultivated in a greenhouse under controlled growth conditions. 2 to 3 weeks after sowing, the trial plants are treated at the one-leaf stage. The compounds of the invention, formulated in the form of wettable powders (WP) or as emulsion concentrates (EC), are then sprayed onto the green parts of the plants as aqueous suspension or emulsion with addition of 0.5% additive at a water application rate equivalent to 600 l/ha. After about 3 weeks of keeping the trial plants in the greenhouse under optimum growth conditions, the effect of the preparations is rated visually in comparison to untreated controls. For example, 100% activity=the plants have died, 0% activity=like control plants.
(§2) Tables B1 to B14 below show the effects of selected compounds of the general formula (I) according to Table 1 on various harmful plants and at an application rate corresponding to 320 g/ha or lower, which were obtained by the trial procedure specified above. The appendices “a”, “b” and “c” give differentiation by dosage used with otherwise the same harmful plants tested.
(§3) As shown by results from Tables B1 to B19, inventive compounds of the general formula (I) in the case of post-emergence treatment have good herbicidal efficacy against harmful plants, for example Abutilon theophrasti (ABUTH), Alopecurus myosuroides (ALOMY), Amaranthus retroflexus (AMARE), Avena fatua (AVEFA), Digitaria sanguinalis (DIGSA), Echinochloa crus-galli (ECHCG), Bassia scoparia (KCHSC), Lolium rigidum (LOLRI), Matricaria inodora (MATIN), Pharbitis purpurea (PHBPU), Polygonum convolvulus (POLCO), Setaria viridis (SETVI), Veronica persica (VERPE) and Viola tricolor (VIOTR) at an application rate of 320 g of active substance or less per hectare, and good crop plant compatibility in the case of organisms such as Oryza sativa (ORYSA), Zea mays (ZEAMX), Brassica napus (BRSNW), Glycine max (GLXMA) and Triticum aestivum (TRZAS) at an application rate of 320 g or less per hectare.

Assay [2] has as its system Alopecurus myosuroides (ALOMY). The following applies: Alopecurus myosuroides, 504 h, 320 g/ha, visual rating after about 3 weeks, read-out: Post-emergence effect at 320 g/ha against ALOMY in %. The protocol: as §1, §2, §3
Assay [3] concerns Pharbitis purpurea (PHBPU). The following applies: visual rating after about 3 weeks; for pest or weed control at 320 g/ha / pest or weed control at 80 g/ha: Ipomoea purpurea, 504 h; for pest or weed control at 320 g/ha: read-out: Post-emergence effect at 320 g/ha against PHBPU in %; for pest or weed control at 80 g/ha: read-out: Post-emergence effect at 80 g/ha against PHBPU in %. The procedure:
as §1, §2, §3

Assay [4] deals with Lolium rigidum (LOLRI). Conditions: Lolium rigidum, 504 h, 320 g/ha, visual rating after about 3 weeks, read-out: Post-emergence effect at 320 g/ha against LOLRI in %. The procedure: as §1, §2, §3
The subject of assay [5] is Matricaria inodora (MATIN). Conditions: visual rating after about 3 weeks; for pest or weed control at 320 g/ha: read-out: Post-emergence effect at 320 g/ha against MATIN in %. The protocol: as §1, §2, §3
The subject of assay [6] is Viola tricolor (VIOTR). The following applies: for pest or weed control at 320 g/ha / pest or weed control at 80 g/ha: Viola tricolor, 504 h, read-out: Post-emergence effect against VIOTR. The protocol: as §1, §2, §3
Assay [7] has as its system Digitaria sanguinalis (DIGSA). Conditions: visual rating after about 3 weeks; for pest or weed control at 320 g/ha: Digitaria sanguinalis, 504 h, read-out: Post-emergence effect at 320 g/ha against DIGSA in %. The procedure:
as §1, §2, §3

The subject of assay [8] is Echinochloa crus-galli (ECHCG). The following applies: visual rating after about 3 weeks; for pest or weed control at 80 g/ha / pest or weed control at 320 g/ha: Echinochloa crus-galli, 504 h; for pest or weed control at 80 g/ha: read-out: Post-emergence effect at 80 g/ha against ECHCG in %; for pest or weed control at 320 g/ha: read-out: Post-emergence effect at 320 g/ha against ECHCG in %. The procedure: as §1, §2, §3

For assay [9], the system named is Bassia scoparia (KCHSC). The following applies: 320 g/ha. The protocol:
as §1, §2, §3

The test system of assay [10] is Polygonum convolvulus (POLCO). The following applies: visual rating after about 3 weeks; for pest or weed control at 80 g/ha / pest or weed control at 320 g/ha: Fallopia convolvulus, 504 h; for pest or weed control at 80 g/ha: read-out: Post-emergence effect at 80 g/ha against POLCO in %; for pest or weed control at 320 g/ha: read-out: Post-emergence effect at 320 g/ha against POLCO in %. The protocol: as §1, §2, §3

Assay [11] concerns Abutilon theophrasti (ABUTH). The following applies: visual rating after about 3 weeks; for pest or weed control at 80 g/ha / pest or weed control at 320 g/ha: Abutilon theophrasti, 504 h; for pest or weed control at 80 g/ha: read-out: Post-emergence effect at 80 g/ha against ABUTH in %; for pest or weed control at 320 g/ha: read-out: Post-emergence effect at 320 g/ha against ABUTH in %. The procedure: as §1, §2, §3

For assay [12], the system named is Amaranthus retroflexus (AMARE). The following applies: visual rating after about 3 weeks; for pest or weed control at 80 g/ha / pest or weed control at 320 g/ha: Amaranthus retroflexus, 504 h; for pest or weed control at 80 g/ha: read-out: Post-emergence effect at 80 g/ha against AMARE in %; for pest or weed control at 320 g/ha: read-out: Post-emergence effect at 320 g/ha against AMARE in %. The procedure: as §1, §2, §3

Assay [13] has as its system Avena fatua (AVEFA). The following applies: 320 g/ha, visual rating after about 3 weeks; for pest or weed control at 320 g/ha: Avena fatua, 504 h, read-out: Post-emergence effect at 320 g/ha against AVEFA in %. The procedure: as §1, §2, §3
[14] abbreviates: Tripleurospermum inodorum, 504 h, 320 g/ha.

In the case of `CCOC(=O)C(Oc1nn(-c2ccccc2F)c(-c2ccc(F)nc2)c1Br)SC` (single isomer, unassigned) [Example I-30], the pest or weed control at 320 g/ha amounted to 80% in assay [1] (320 g/ha); 90% in assay [2]; 80% in assay [3] (320 g/ha); 80% in assay [4]; 80% in [5] (setting [14]); 90% in assay [6] (320 g/ha). Besides, the pest or weed control at 320 g/ha in assay [7] (320 g/ha) is 90%; in assay [8] (320 g/ha), 80%. Besides, the “Post-emergence effect at 80 g/ha against DIGSA in %” value in [7] turned out to be 80%. Besides, the pest or weed control at 80 g/ha in assay [8] was determined as 80%.
With `CSC(Oc1nn(-c2ncccc2F)c(-c2ccc(F)nc2)c1Br)C(=O)O` (single isomer, unassigned) [Example I-25], in assay [9], the “Post-emergence effect against KCHSC” value is listed as 90%. For the same molecule, in assay [1] (320 g/ha), the “Post-emergence effect at 320 g/ha against SETVI in %” value is listed as 90%. In assay [2], the pest or weed control at 320 g/ha came out at 90%. The “Post-emergence effect at 320 g/ha against POLCO in %” value in assay [10] (320 g/ha) is listed as 80%. The pest or weed control at 80 g/ha in assay [10] stood at 80%; in [12], 90%; in assay [8] it was 80%. For the same molecule, the “Post-emergence effect at 320 g/ha against ABUTH in %” value in assay [11] (320 g/ha) is reported as 90%. For the same molecule, in [3] (80 g/ha), the “Post-emergence effect at 80 g/ha against PHBPU in %” value was 90%. The “Post-emergence effect at 320 g/ha against PHBPU in %” value in assay [3] (320 g/ha) is listed as 90%. Further, the “Post-emergence effect at 320 g/ha against MATIN in %” value in assay [5] (320 g/ha) turned out to be 80%. The “Post-emergence effect at 320 g/ha against AMARE in %” value in [12] (320 g/ha) was found to be 90%. Moreover, in [13], the “Post-emergence effect at 320 g/ha against AVEFA in %” value was found to be 90%. Besides, in [6] (320 g/ha), the “Post-emergence effect against VIOTR” value is listed as 90%. The “Post-emergence effect at 80 g/ha against DIGSA in %” value in assay [7] is listed as 80%. For the same molecule, the “Post-emergence effect at 320 g/ha against DIGSA in %” value in assay [7] (320 g/ha) came to 90%. In addition, the “Post-emergence effect at 320 g/ha against ECHCG in %” value in [8] (320 g/ha) is 90%.
Regarding `CCOC(=O)C(Oc1nn(-c2ncccc2F)c(-c2ccc(F)nc2)c1Br)SC` (centres unmarked) [Example I-13], in [1], the “Post-emergence effect at 80 g/ha against SETVI in %” value stood at 80%. The pest or weed control at 320 g/ha in assay [1] (320 g/ha) was found to be 90%; in [2], 80%; in assay [10] (320 g/ha) it was 90%; in [11] (320 g/ha), 90%; in assay [3] (320 g/ha), 80%; in assay [4], 90%. Moreover, the pest or weed control at 320 g/ha in assay [12] (320 g/ha) amounted to 90%; in [13], 90%; in assay [6] (320 g/ha), 80%; in assay [7] (320 g/ha), 90%; in [8] (320 g/ha) it was 90%. For the same molecule, the pest or weed control at 80 g/ha in [10] worked out at 80%; in [11], 90%; in assay [3] (80 g/ha) it was 80%; in assay [12] it was 80%; in assay [8], 80%.
On to `CSC(Oc1nn(-c2ncccc2F)c(-c2ccc(F)nc2)c1Cl)C(=O)O` (centres unmarked) [Example I-31], for which the pest or weed control at 320 g/ha in assay [1] (320 g/ha), in assay [2], in assay [10] (320 g/ha), in assay [3] (320 g/ha), in [5] (setting [14]) and in assay [12] (320 g/ha) was 80% in each case. Moreover, the pest or weed control at 320 g/ha was 80% in [13], 80% in assay [7] (320 g/ha) and 90% in [8] (320 g/ha). Besides, in [8], the pest or weed control at 80 g/ha worked out at 80%.
For `COC(=O)C(Oc1nn(-c2ccccc2F)c(-c2ccc(F)nc2)c1Br)SC` (centres unmarked) [Example I-10], the “Post-emergence effect at 80 g/ha against SETVI in %” value in [1] worked out at 90%. Besides, the pest or weed control at 320 g/ha worked out at 90% in assay [1] (320 g/ha); 100% in assay [2]; 80% in [10] (320 g/ha); 90% in assay [11] (320 g/ha); 80% in assay [3] (320 g/ha); 90% in assay [4]. The pest or weed control at 320 g/ha amounted to 90% in [5] (setting [14]); 80% in assay [12] (320 g/ha); 90% in [6] (320 g/ha); 90% in assay [7] (320 g/ha); 90% in [8] (320 g/ha). Moreover, the pest or weed control at 80 g/ha turned out to be 80% in assay [10]; 90% in assay [11]; 80% in assay [5] (Tripleurospermum inodorum, 504 h, 80 g/ha, read-out: Post-emergence effect at 80 g/ha against MATIN in %); 80% in assay [12]; 80% in assay [6]; 80% in assay [8]. In addition, the “Post-emergence effect at 20 g/ha against AMARE in %” value in assay [12] (20 g/ha) was determined as 80%. Also, the “Post-emergence effect at 80 g/ha against DIGSA in %” value in [7] is reported as 90%.
`COC(=O)C(Oc1nn(-c2ncccc2F)c(-c2ccc(F)nc2)c1Cl)SC` (centres unmarked) [Example I-56]: the pest or weed control at 320 g/ha in [9] (Bassia scoparia, 504 h, read-out: Post-emergence effect against KCHSC) came out at 80%; in assay [1] (320 g/ha), 90%; in [2] it was 80%; in [10] (320 g/ha) it was 90%; in [11] (320 g/ha), 90%; in assay [3] (320 g/ha) it was 90%. Further, the pest or weed control at 320 g/ha in assay [4] turned out to be 90%; in assay [5] (setting [14]) it was 80%; in assay [13], 90%; in [6] (320 g/ha) it was 90%; in assay [7] (320 g/ha), 80%; in assay [8] (320 g/ha) it was 90%. The pest or weed control at 80 g/ha in assay [10] was found to be 80%; in [11], 80%; in assay [3] (80 g/ha) it was 90%; in assay [6] it was 80%; in [8], 90%. In addition, in [3] (20 g/ha), the “Post-emergence effect at 20 g/ha against PHBPU in %” value turned out to be 80%.
